For orientation: MIC means the least concentration at which growth counts as inhibited. One may read the IC50 as the concentration at which inhibition is half-maximal. Broadly, the CC50 is the concentration giving 50% cytotoxicity. A lower CC50 goes with greater toxicity to the cells.

In brackets after ≈: the same amount, converted by molar mass. Like-named read-outs stand apart in the source and are kept apart here. Where only a bound is given, the exact number is not on record here.

Experimental findings from patent publication US10316371B2, “Screening methods for identifying specific Staphylococcus aureus inhibitors” (TRANA DISCOVERY, INC., priority 2011, dated 2019) are described below.

One data set deals with K. pneumoniae UMM. Nature of the data set: MIC. The data set is classed as cell-based. The conditions noted are these: Klebsiella pneumoniae.
For another data set, the system named is K. pneumoniae 700603. Kind of data set: MIC. To be noted: Klebsiella pneumoniae. The data set is classed as cell-based.
Another data set concerns E. coli ESBL 4. Nature of the data set: MIC. The data set is classed as cell-based. The conditions noted are these: Escherichia coli, ESBL4.
The subject of data set [1] is SA 2 (Staphylococcus aureus 2). Kind of data set: MIC. The data set is classed as cell-based. As for the experimental part: (§1) The strains included Staphylococcus aureus, Methicillin Resistant (ATCC 33591), Methicillin-Resistant Staphylococcus aureus USA300, Staphylococcus aureus 158, Staphylococcus aureus 22, Staphylococcus aureus 2, Staphylococcus aureus (ATCC 29213), and Staphylococcus aureus 182.
(§2) A series of compounds were evaluated for their activity against drug resistant S. aureus, including MSSA and MRSA strains.

In data set [2] the test system is SA 22 (Staphylococcus aureus 22). Kind of data set: MIC. The data set is classed as cell-based. As for the experimental part:
as §1, §2

For data set [3], the system named is SA 182 (Staphylococcus aureus 182). Kind of data set: MIC. The data set is classed as cell-based. As for the experimental part:
as §1, §2

For data set [4], the system named is SA 33591 (Staphylococcus aureus, Methicillin Resistant (ATCC 33591)). Nature of the data set: MIC. The data set is classed as cell-based. As for the experimental part:
as §1, §2

For data set [5], the system named is SA 158 (Staphylococcus aureus 158). Kind of data set: MIC. The data set is classed as cell-based. As for the experimental part:
as §1, §2

Data set [6] relates to SA 29213 (Staphylococcus aureus (ATCC 29213)). Kind of data set: MIC. The data set is classed as cell-based. As for the experimental part:
as §1, §2

In data set [7] the test system is SA USA 300 (Methicillin-Resistant Staphylococcus aureus USA300). Kind of data set: MIC. The data set is classed as cell-based. As for the experimental part: as §1, §2
In a further data set the test system is S. epidermidis MRSE 01. Kind of data set: MIC. The data set is classed as cell-based. To be noted: Staphylococcus epidermidis. As for the experimental part: (§3) The compounds were re-tested against other bacteria, including Staphylococcus epidermidis (ATCC 35984), Staphylococcus epidermidis (MRSE), E. faecium 134529, E. faecium 145494, […], E. faecium 161651, S. pneumoniae 49619, and S. pneumoniae 149389.
as §2

The test system of a further data set is E. faecalis 161651. Kind of data set: MIC. The conditions noted are these: Enterococcus faecalis. The data set is classed as cell-based. As for the experimental part: as §3, §2
Another data set concerns E. faecium 145494. Nature of the data set: MIC. The conditions noted are these: Enterococcus faecium. The data set is classed as cell-based. As for the experimental part: as §3, §2
Another data set has as its system E. faecalis 29212. Nature of the data set: MIC. The data set is classed as cell-based. The conditions noted are these: Enterococcus faecalis. As for the experimental part: as §3, §2
In a further data set the test system is E. faecium 134529. Nature of the data set: MIC. The data set is classed as cell-based. The conditions noted are these: Enterococcus faecium. As for the experimental part: as §3, §2
Another data set deals with S. pneumoniae 149389. Nature of the data set: MIC. To be noted: Streptococcus pneumoniae. The data set is classed as cell-based. As for the experimental part:
as §3, §2

In another data set the test system is S. epidermidis 35984. Nature of the data set: MIC. The data set is classed as cell-based. The conditions noted are these: Staphylococcus epidermidis. As for the experimental part: as §3, §2
For another data set, the system named is S. pneumoniae 49619. Kind of data set: MIC. The data set is classed as cell-based. To be noted: Streptococcus pneumoniae. As for the experimental part:
as §3, §2

The test system of data set [8] is S. aureus specific Arg ASL (anticodon stem loop) RNA oligomer interaction with programmed ribosomes. Nature of the data set: Fluorescence polarization assay of Arg ASL / programmed ribosome complex (HTS and dose response). The data set is classed as binding, S. aureus Arg ASL; E. coli 70S ribosomes. To be noted: 6 pt dose response, fluorescence polarization after 4 hours at 25° C., corrected for auto-fluorescence. An excerpt:
The assay requires the following materials: • Ribosomes—isolated from E. coli or S. aureus • fMet tRNA (Sigma or Chemical Block, Moscow) • mRNA (including the S-D sequence, the “box” sequence, the codon for methionine, and the codon for arginine that is specific for S. aureus, AGA, optionally with additional base pairs to the left of the S-D sequence and/or to the right of the codon for arginine) • Fluorescently labeled Arg ASL oliogomer • Buffer—HAM20,β • 384 well high binding micro titer plates (Matrix Technologies #4319, sold by Fischer Scientific as cat #50823855), or other appropriate plates for use in high throughput screening • Filtration (Sartorius Stedium 100 Kdalton VC 1042) or centrifugation for complex purification • EDTA—negative control (binding antagonist) • Neomycin—A-site binding enhancer (binding agonist)
A ribosome complex was prepared using the above materials and then purified prior to use in the assay. The prepared complex can be stored in concentrated form at −80° C. The complexes were diluted in buffer and dispensed onto plates. […] Fluorescence polarization was measured at approximately 4 hours after dispensing onto the micro-titer plates.
ASL^Arg was first heated for 2 min at 90° C. in water, after addition of 1/10 V of 10× buffer incubation continued on ice for at least 10 min. Prior to complex formation 70S ribosomes and tRNA were reactivated in buffer for 5 min at 45° C. followed by 10 min at 37° C.; mRNA was heated in buffer at 37° C. for 5 min. • (1000 μl×(2 μM E. coli 70S ribosomes+10 μM mRNA-Arg+4 μM tRNA^fmet)/HAM20,β→30 min @ 37° C.,+1000 μl×(0.2 μM neomycin+[…]))→20 min @ 37° C., overnight on ice • Final complex: (2000 pm P+2000 pm ASL)/2 ml=1 μM P+1 μM ASL HAM20,β:
Preparation of Complexes: The purified complex was diluted in ice cold HAM20,β such that the total fluorescence was approximately 2,000,000 units per 5 μL.
20 μl of the diluted complex was added to all 384 well plates (except for blank wells, which received 20 μL of HAM20 only, without complex) using Multidrop dispenser after which the plates were incubated at 25° C. for 4 hours (target 4.5 hours for middle of batch). Plates were then analyzed for fluorescence polarization in Analyst HT fluorescence plate reader and the following instrument settings:
The parallel and perpendicular fluorescence values of experimental wells were automatically corrected for the corresponding values obtained from the blank wells. The fluorescence polarization was calculated as following: P=(I−Ip)/(I+Ip), wherein Ip—is perpendicular fluorescence and I—is parallel fluorescence.
The percent of effect of experimental compounds was calculated as following: %-Inh=(P0−Pc)/(P0−P100)*100, wherein P0—is average polarization in 0%—inhibition control wells, P100—is average polarization in 100%—inhibition control wells, and Pc—is polarization in compound well.
The 3 sigma HTS hits were cherry picked and retested in 6 pt dose response format, using 3× serial dilution and the top nominal concentration of 100 uM.
The compounds were serially diluted in 10% DMSO and plated into 384 well plates (in a volume of 5 μL) to achieve the nominal final concentration raging from 100 μM to 0.4 μM. The plates received 20 μl of the diluted complex following incubation at 25° C. for 4 hours. Plates were then analyzed for fluorescence polarization as described above (see HTS section).
In parallel, the compounds were tested for auto-fluorescence. To this end, the compounds were plated (using the same dilution protocol) into 384 well plates. The plates received 20 μL of the HAM20 assay buffer only (without complex). The plates were incubated for 4 hrs and then were analyzed for fluorescence polarization as described above.
(In general: Polarisation of emitted light reports the rotation of a fluorescent probe.)

A further data set has as its system E. coli 25922. Nature of the data set: MIC. To be noted: Escherichia coli. The data set is classed as cell-based.
A short description of data set [9]: Mammalian Cell Toxicity. The data set is classed as cell-based. To be noted: human, MRC5 cells.
Data set [10] in a line: Mammalian Cell Toxicity. The data set is classed as cell-based. To be noted: mouse, 3T3 cells.

`CCN1C(=O)C2Cc3c([nH]c4ccccc34)CN2C1=S` (centres unmarked) [Compound #740, 2-ethyl-3-thioxo-2,3,5,6,11,11a-hexahydro-1H-imidazo[1′,5′:1,6]pyrido[3,4-b]indol-1-one]: the MIC in the data set on K. pneumoniae UMM (K. pneumoniae UMM, read-out: MIC) is greater than 128 µg/mL; with K. pneumoniae 700603 (K. pneumoniae 700603, read-out: MIC) it was greater than 128 µg/mL; in the data set on E. coli ESBL 4 (E. coli ESBL 4, read-out: MIC) it was greater than 128 µg/mL; in data set [1] (SA 2, read-out: MIC), 32 µg/mL (≈ 112 µM); in data set [2] (SA 22, read-out: MIC), 32 µg/mL (≈ 112 µM); in data set [3] (SA 182, read-out: MIC), 128 µg/mL (≈ 449 µM). For the same molecule, the MIC in [4] (ATCC33591, SA 33591, read-out: MIC) amounted to 128 µg/mL (≈ 449 µM); in data set [5] (SA 158, read-out: MIC) it was 128 µg/mL (≈ 449 µM); in data set [6] (ATCC29213, SA 29213, read-out: MIC), 64 µg/mL (≈ 224 µM); in data set [7] (SA USA 300, read-out: MIC), 128 µg/mL (≈ 449 µM); in the data set on S. epidermidis MRSE 01 (S. epidermidis MRSE 01, read-out: MIC), 64 µg/mL (≈ 224 µM); with E. faecalis 161651 (E. faecalis 161651, read-out: MIC), 128 µg/mL (≈ 449 µM). The MIC in the data set on E. faecium 145494 (E. faecium 145494, read-out: MIC) was greater than 128 µg/mL; with E. faecalis 29212 (E. faecalis 29212, read-out: MIC) it was 128 µg/mL (≈ 449 µM); in the data set with E. faecium 134529 (E. faecium 134529, read-out: MIC), 64 µg/mL (≈ 224 µM); in the data set with S. pneumoniae 149389 (S. pneumoniae 149389, read-out: MIC), greater than 128 µg/mL; with S. epidermidis 35984 (S. epidermidis 35984, read-out: MIC) it was 128 µg/mL (≈ 449 µM); in the data set with S. pneumoniae 49619 (S. pneumoniae 49619, read-out: MIC), greater than 128 µg/mL. In addition, the minimum inhibitory concentration (MIC) in the data set on E. coli 25922 (E. coli 25922, read-out: MIC) was greater than 128 µg/mL. The IC50 in [8] (read-out: IC50) amounted to 44.2 µM. Also, the CC50 in “Mammalian Cell Toxicity [9]” is 62 µg/mL (≈ 217 µM); in the data set “Mammalian Cell Toxicity [10]”, 20 to 64 µg/mL (≈ 70.1 to 224 µM).
With `CC[n+]1c(C=CC=CN(C(C)=O)c2ccccc2)sc2ccccc21.[I-]` [Compound #928, 2-{4-[acetyl(phenyl)amino]-1,3-butadien-1-yl}-3-ethyl-1,3-benzothiazol-3-ium iodide], the MIC against K. pneumoniae UMM was greater than 128 µg/mL; against K. pneumoniae 700603 (700603), greater than 128 µg/mL; in the data set with E. coli ESBL 4 it was greater than 128 µg/mL; in data set [1], 128 µg/mL; in data set [2], 64 µg/mL; in [3], greater than 128 µg/mL. Further, the MIC amounted to 128 µg/mL in data set [4] (ATCC33591); 128 µg/mL in data set [5]; 64 µg/mL in data set [6] (ATCC29213); 64 µg/mL in data set [7]; 64 µg/mL with S. epidermidis MRSE 01 (MRSE); 128 µg/mL in the data set with E. faecalis 161651 (161651). Also, the MIC was 128 µg/mL in the data set with E. faecium 145494 (145494); 128 µg/mL against E. faecalis 29212 (29212); 128 µg/mL in the data set with E. faecium 134529 (134529); greater than 128 µg/mL in the data set with S. pneumoniae 149389 (149389); 128 µg/mL in the data set on S. epidermidis 35984 (35984); greater than 128 µg/mL in the data set on S. pneumoniae 49619 (49619). The MIC with E. coli 25922 (25922) is greater than 128 µg/mL. The IC50 result in [8] is listed as “agonist”. Moreover, the CC50 in the data set “Mammalian Cell Toxicity [9]” and in “Mammalian Cell Toxicity [10]” was 20 to 64 µg/mL throughout.
